Among the data in patent US6541480B2, “1-aryl-1,8-naphthylidin-4-one derivative as type IV phosphodiesterase inhibitor” (Suntory Limited, priority 1997, dated 2003) are death and IC50 values, retold here.

A short description of data set [1]: 28-day repeated administration toxicity in mice. Type of data set: in vivo. The following applies: 10 mg/kg per day administered for 28 days to mice.
The subject of data set [2] is type IV phosphodiesterase. As to the kind of experiment: Type IV phosphodiesterase inhibiting activity (3H-cAMP hydrolysis, PDE IV fraction from U937 cells). Type of data set: biochemical. As to conditions: PDE IV fraction from human U937 cells, 30° C., 30 minutes.
In data set [3] the test system is TNF-α production by LPS stimulated mouse peritoneal macrophages. As to the kind of experiment: TNF-α production inhibitory activity by LPS stimulated macrophages (ELISA). In kind it is cell-based. As to conditions: LPS 10 μg/ml, 8 hours. (An ELISA detects its analyte on a solid surface through an enzyme-linked reagent.)

Broadly, the IC50 is the concentration that gives 50% inhibition. Turning to `O=C(Nc1c(Cl)cncc1Cl)c1cn(-c2ccc(F)cc2)c2ncccc2c1=O` [Example 106, N-(3,5-Dichloropyridin-4-yl)-1-(4-fluorophenyl)-1,4-dihydro[1,8]naphthylidin-4-one-3-carboxamide], the death result in data set [1] is “no death”. Further, the values for the IC50 in data set [2] and in data set [3] were 0.4 nM and 10 nM, respectively.

With `O=C(Nc1ccncc1)c1cn(-c2ccncc2)c2ncccc2c1=O` [Example 139, 1,N-bis-(4-Pyridyl)-1,4-dihydro[1,8]naphthylidin-4-one-3-carboxamide], the death entry in data set [1] is listed as “no death”. For the same compound, the results for the IC50 in data set [2] and in data set [3] (Peritoneal macrophage) were 70 nM and 100 nM, respectively.

With `O=C(Nc1ccncc1)c1cn(-c2ccc(F)cc2)c2ncccc2c1=O` [Example 103, 1-(4-Fluorophenyl)-N-(4-pyridyl)-1,4-dihydro[1,8]naphthylidin-4-one-3-carboxamide], the death entry in data set [1] was “no death”. For the same compound, the half-maximal inhibitory concentration (IC50) in data set [2] came to 59 nM; in data set [3] (Peritoneal macrophage) it was 100 nM.
